What all share (format): cell-based, Mouse
Assay [1] has as its system adiponectin monomers, trimers, hexamers and multimers. Kind of assay: Adiponectin multimerization state, non-reducing SDS-PAGE / Western blotting of culture supernatant. To be noted: FIG. 2. The procedure:
(§1) Mouse 3T3-L1 fibroblasts in a confluent state were induced with insulin to differentiate into adipocytes. The cells were then cultured for 48 hours in a DMEM medium containing 10% FBS. The cells were then cultured for 24 hours in a serum-free DMEM medium including L-fucose and/or D-glucose at the concentrations for each test section indicated in Table 1.
The cell culture supernatant in the same test sections as in Test Example 1 was collected, equivalent samples for each test section were subjected to non-reducing SDS-PAGE, and adiponectin monomers appearing at a molecular weight position of approximately 30 kDa, trimers appearing at a position of approximately 100 kDa, hexamers appearing at a position of approximately 200 kDa, and multimers appearing at higher molecular weight positions were detected by a Western blotting method using specific antibodies for adiponectin. A near-infrared fluorescence imager (“Odyssey Fc,” manufactured by LI-COR, Inc.) was used for the detection, and the various multimerization states were compared.
In general terms: A western blot detects proteins with antibodies after separation by electrophoresis.

Assay [2] has as its system nuclear-receptor-type transcription factor PPAR-gamma. Kind of assay: PPAR-gamma expression in adipocytes, Western blotting. The following applies: 3T3-L1-derived adipocytes, 24 hours, FIG. 1. As to the method:
as §1
(§2) After culturing, the culture supernatant was collected and mixed with an equal amount of reducing SDS-PAGE (polyacrylamide gel electrophoresis) loading buffer and held for 10 minutes at 100° C., a 5-10-μL sample for each lane was subjected to SDS-PAGE, and the nuclear-receptor-type transcription factor PPAR-gamma, actin as an internal standard protein, and adiponectin were detected by a Western blotting method using specific antibodies for each in accordance with the usual method. A near-infrared fluorescence imager (“Odyssey Fc,” manufactured by LI-COR, Inc.) was used for the detection, and the relative expression levels of each protein were compared.

A further assay relates to adiponectin. The experiment in a line: Adiponectin expression by adipocytes, reducing SDS-PAGE / Western blotting of culture supernatant. The following applies: 3T3-L1-derived adipocytes, 24 hours serum-free DMEM, FIG. 1. As to the method:
as §1, §2

The mark [3] stands for this setting: 0.1 w/v % glucose + 0.1 w/v % L-fucose (test section 2) vs test section 1, tendency more pronounced at low glucose.
The mark [4] stands for this setting: 0.45 w/v % glucose + 0.1 w/v % L-fucose (test section 4) vs test section 3.

Data on 1 compound can be found in patent US20170209473A1, “ADIPONECTIN SECRETION REGULATOR” (THE UNIVERSITY OF TOKYO, priority 2014, published 2017).

As to `C[C@H](O)[C@@H](O)[C@@H](O)[C@H](O)C=O` [L-fucose], the adiponectin multimers entry in assay [1] (setting [3]) and in assay [1] (setting [4]) was “increased” each time. For the same compound, the “incidence of adiponectin monomers, trimers, and hexamers” value in assay [1] (setting [3]) and in assay [1] (setting [4]) was “reduced” in each case. The “expression level of PPAR-gamma” value in assay [2] (0.1 w/v % D-glucose + 0.1 w/v % L-fucose (test section 2) vs test section 1) was “almost no change”; in assay [2] (0.45 w/v % D-glucose + 0.1 w/v % L-fucose (test section 4) vs test section 3), “slight decrease”. Also, the “expression level of adiponectin” value in the assay on adiponectin (0.1 w/v % glucose + 0.1 w/v % fucose (test section 2) vs test section 1 without fucose) and in the assay on adiponectin (0.45 w/v % glucose + 0.1 w/v % fucose (test section 4) vs test section 3 without fucose) was “tendency for the expression level of adiponectin to decrease” each time.
